Experimental findings from patent US9783532B2, “Molecules having certain pesticidal utilities, and intermediates, compositions, and processes related thereto” (Dow AgroSciences LLC, priority 2013, dated 2017) are described below.

Like-named read-outs stand apart in the source and are kept apart here.

Holding throughout (type): in vivo
The test system of data set [1] is Beet Armyworm (Spodoptera exigua) ("BAW"). In words: Bioassay on beet armyworm (BAW), 128-well diet tray assay. The following applies: for mortality at 50 µg/cm2: 168 h, 50 μg/cm^2 on artificial diet, second instar BAW larvae, 25° C., five to seven days, average of eight wells, read-out: BAW % Control (or Mortality) rating; for pest or weed control at 50 µg/cm2: activity rating class, read-out: BAW (Biological Results, Insect species). In outline: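 Percent mortality, averaged across eight wells, was read after five to seven days at 25° C. under 14:10 light-dark. Each well held one to five second-instar larvae on artificial diet that had been treated with 50 μg/cm^2 compound in 90:10 acetone-water and dried.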

The subject of data set [2] is Cabbage Looper (Trichoplusia ni) ("CL"). As to the kind of experiment: Bioassay on cabbage looper (CL), 128-well diet tray assay. The following applies: for pest or weed control at 50 µg/cm2: activity rating class, read-out: CL (Biological Results, Insect species). In outline:
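Percent mortality, averaged across eight replicate wells, was read after five to seven days at 25 °C under a 14:10 photoperiod. Each well held one to five second-instar T. ni on diet carrying a dried 50 μg/cm^2 dose applied in acetone-water 90:10.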

The subject of data set [3] is Yellow Fever Mosquito "YFM" (Aedes aegypti). The note with it: for YFM % Control (or Mortality) rating: about 1 day-old larvae, 96-well plate, room temperature, 3 days; for YFM (Biological Results, Insect species): activity rating class. The method, then: Certain molecules disclosed in this document were tested against YFM using procedures described in the following paragraph. In the reporting of the results, the “YFM Rating Table” was used (See Table Section).
Master plates containing 400 μg of a molecule dissolved in 100 μL of dimethyl sulfoxide (DMSO) (equivalent to a 4000 ppm solution) are used. A master plate of assembled molecules contains 15 μL per well. To this plate, 135 μL of a 90:10 wateracetone mixture is added to each well. A robot (Biomek® NXP Laboratory Automation Workstation) is programmed to dispense 15 μL aspirations from the master plate into an empty 96-well shallow plate (“daughter” plate). There are 6 reps (“daughter” plates) created per master. The created daughter plates are then immediately infested with YFM larvae.
The day before plates are to be treated, mosquito eggs are placed in Millipore water containing liver powder to begin hatching (4 g. into 400 mL). After the daughter plates are created using the robot, they are infested with 220 μL of the liver powder/larval mosquito mixture (about 1 day-old larvae). After plates are infested with mosquito larvae, a non-evaporative lid is used to cover the plate to reduce drying. Plates are held at room temperature for 3 days prior to grading. After 3 days, each well is observed and scored based on mortality.

Usually mortality stands for the share of the test organisms that died. Turning to `Cc1ccc(C(C)C)c(N2C(=O)CS/C2=N\C(=O)NCCCc2ccc(-c3ncn(-c4ccc(OC(F)(F)F)cc4)n3)cc2)c1` [F20, (Z)-1-(3-(2-isopropyl-5-methylphenyl)-4-oxothiazolidin-2-ylidene)-3-(3-(4-(1-(4-(trifluoromethoxy)phenyl)-1H-1,2,4-triazol-3-yl)phenyl)propyl)urea], the mortality at 50 µg/cm2 in data set [1] is 50 to 100%; in data set [2] (168 h, 50 μg/cm^2 on artificial diet, second instar CL larvae, 25° C., five to seven days, average of eight wells, read-out: CL % Control (or Mortality) rating), 50 to 100%. The “YFM % Control (or Mortality) rating” value in data set [3] is on record as “A (80-100)”.
Consider `Cc1ccc(N2C(=O)CS/C2=N\C(=O)NCCCCc2ccc(-c3ncn(-c4ccc(OC(F)(F)F)cc4)n3)cc2)c(C)c1` [FB17, (Z)-1-(3-(2,4-dimethylphenyl)-4-oxothiazolidin-2-ylidene)-3-(4-(4-(1-(4-(trifluoromethoxy)phenyl)-1H-1,2,4-triazol-3-yl)phenyl)butyl)urea], for which the pest or weed control at 50 µg/cm2 in data set [1] (Table ABC (FB)) and in data set [2] (Table ABC (FB)) was 50 to 100% throughout. Moreover, the “YFM (Biological Results, Insect species)” value in data set [3] (Table ABC (FB)) is listed as “A (80-100)”.
On to `CC(C)c1ccc(Cl)cc1N1C(=O)CS/C1=N\C(=O)NCCc1ccc(-c2ncn(-c3ccc(OC(F)(F)F)cc3)n2)cc1` [FB40, (Z)-1-(3-(5-chloro-2-isopropylphenyl)-4-oxothiazolidin-2-ylidene)-3-(4-(1-(4-(trifluoromethoxy)phenyl)-1H-1,2,4-triazol-3-yl)phenethyl)urea], for which the pest or weed control at 50 µg/cm2 in data set [1] (Table ABC (FB)) and in data set [2] (Table ABC (FB)) was 50 to 100% in each case. The “YFM (Biological Results, Insect species)” value in data set [3] (Table ABC (FB)) is on record as “A (80-100)”.
Take `Cc1ccc(C(C)C)c(N2C(=O)CCS/C2=N\C(=O)NCCc2ccc(-c3ncn(-c4ccc(OC(F)(F)F)cc4)n3)cc2)c1` [FB41]: the pest or weed control at 50 µg/cm2 in data set [1] (Table ABC (FB)) and in data set [2] (Table ABC (FB)) was 50 to 100% each time. Also, the “YFM (Biological Results, Insect species)” value in data set [3] (Table ABC (FB)) is “A (80-100)”.
For `CC(Cc1ccc(-c2ncn(-c3ccc(OC(F)(F)F)cc3)n2)cc1)NC(=O)/N=C1\SCC(=O)N1c1cc(Cl)ccc1C(C)C` (stereo not drawn) [FB42], the pest or weed control at 50 µg/cm2 in data set [1] (Table ABC (FB)) and in data set [2] (Table ABC (FB)) was 50 to 100% throughout. In data set [3] (Table ABC (FB)), the “YFM (Biological Results, Insect species)” value is recorded as “A (80-100)”.
For `Cc1ccc(N2C(=O)CS/C2=N\C(=O)NC(C)Cc2ccc(-c3ncn(-c4ccc(OC(F)(F)F)cc4)n3)cc2)c(C(C)C)c1` (stereo not drawn) [FB48, (Z)-1-(3-(2-isopropyl-4-methylphenyl)-4-oxothiazolidin-2-ylidene)-3-(1-(4-(1-(4-(trifluoromethoxy)phenyl)-1H-1,2,4-triazol-3-yl)phenyl)propan-2-yl)urea], the pest or weed control at 50 µg/cm2 in data set [1] (Table ABC (FB)) and in data set [2] (Table ABC (FB)) was 50 to 100% each time. The “YFM (Biological Results, Insect species)” value in data set [3] (Table ABC (FB)) is “A (80-100)”.
Turning to `CC(C)c1ccc(Cl)cc1N1C(=O)CS/C1=N\C(=O)NCC(C)c1ccc(-c2ncn(-c3ccc(OC(F)(F)F)cc3)n2)cc1` (stereo not drawn) [FB49, (Z)-1-(3-(5-chloro-2-isopropylphenyl)-4-oxothiazolidin-2-ylidene)-3-(2-(4-(1-(4-(trifluoromethoxy)phenyl)-1H-1,2,4-triazol-2,4-triazol-3-yl)phenyl)propyl)urea], the pest or weed control at 50 µg/cm2 in data set [1] (Table ABC (FB)) and in data set [2] (Table ABC (FB)) was 50 to 100% each time. Besides, the “YFM (Biological Results, Insect species)” value in data set [3] (Table ABC (FB)) was “A (80-100)”.
`Cc1ccc(C(C)C)c(N2C(=O)CS/C2=N\C(=O)N(C)CCc2ccc(-c3ncn(-c4ccc(OC(F)(F)F)cc4)n3)cc2)c1` [FB51]: the pest or weed control at 50 µg/cm2 in data set [1] (Table ABC (FB)) and in data set [2] (Table ABC (FB)) was 50 to 100% throughout. Also, the “YFM (Biological Results, Insect species)” value in data set [3] (Table ABC (FB)) was “A (80-100)”.
`Cc1ccc(C(C)C)c(N2C(=O)CS/C2=N\C(=O)NCC(C)(C)c2ccc(-c3ncn(-c4ccc(OC(F)(F)F)cc4)n3)cc2)c1` [FB53, (Z)-1-(3-(2-isopropyl-5-methylphenyl)-4-oxothiazolidin-2-ylidene)-3-(2-methyl-2-(4-(1-(4-(trifluoromethoxy)phenyl)-1H-1,2,4-triazol-3-yl)phenyl)propyl)urea]: the pest or weed control at 50 µg/cm2 in data set [1] (Table ABC (FB)) and in data set [2] (Table ABC (FB)) was 50 to 100% each time. Moreover, in data set [3] (Table ABC (FB)), the “YFM (Biological Results, Insect species)” value is given as “B (More than 0-Less than 80)”.
In the case of `CCN(CCc1ccc(-c2ncn(-c3ccc(OC(F)(F)F)cc3)n2)cc1)C(=O)/N=C1\SCC(=O)N1c1cc(C)ccc1C(C)C` [FB54, (Z)-1-ethyl-3-(3-(2-isopropyl-5-methylphenyl)-4-oxothiazolidin-2-ylidene)-1-(4-(1-(4-(trifluoromethoxy)phenyl)-1H-1,2,4-triazol-3-yl)phenethyl)urea], the pest or weed control at 50 µg/cm2 in data set [1] (Table ABC (FB)) and in data set [2] (Table ABC (FB)) was 50 to 100% throughout. Moreover, the “YFM (Biological Results, Insect species)” value in data set [3] (Table ABC (FB)) is recorded as “A (80-100)”.
`CCC(CNC(=O)/N=C1\SCC(=O)N1c1ccccc1C(C)C)c1ccc(-c2ncn(-c3ccc(OC(F)(F)F)cc3)n2)cc1` (stereo not drawn) [P209, (Z)-1-(3-(2-isopropylphenyl)-4-oxothiazolidin-2-ylidene)-3-(2-(4-(1-(4-(trifluoromethoxy)phenyl)-1H-1,2,4-triazol-3-yl)phenyl)butyl)urea]: the mortality at 50 µg/cm2 in data set [1] was in the range of 50 to 100%. The “YFM % Control (or Mortality) rating” value in data set [3] is reported as “A (80-100)”.
As to `CCC(CNC(=O)/N=C1\SCC(=O)N1c1cc(OC)ccc1C(C)C)c1ccc(-c2ncn(-c3ccc(OC(F)(F)F)cc3)n2)cc1` (stereo not drawn) [P683, (Z)-1-(3-(2-isopropyl-5-methoxyphenyl)-4-oxothiazolidin-2-ylidene)-3-(2-(4-(1-(4-(trifluoromethoxy)phenyl)-1H-1,2,4-triazol-3-yl)phenyl)butyl)urea], in data set [1], the mortality at 50 µg/cm2 is 50 to 100%. The “YFM % Control (or Mortality) rating” value in data set [3] was “A (80-100)”.
Turning to `CCC(CNC(=O)/N=C1\SCC(=O)N1c1ccc(F)cc1C(C)C)c1ccc(-c2ncn(-c3ccc(OC(F)(F)F)cc3)n2)cc1` (stereo not drawn) [P1163], in data set [1], the mortality at 50 µg/cm2 lay in the range of 50 to 100%. Also, the “YFM % Control (or Mortality) rating” value in data set [3] is given as “D (No activity noticed in this bioassay)”.
`CCc1cccc(C)c1NC(=S)NC(=O)NCCCCc1ccc(-c2ncn(-c3ccc(OC(F)(F)F)cc3)n2)cc1` [PC153, 1-[(2-ethyl-6-methyl-phenyl)carbamothioyl]-3-[4-[4-[1-[4-(trifluoromethoxy)phenyl]-1H-1,2,4-triazol-3-yl]phenyl]butyl]urea]: the pest or weed control at 50 µg/cm2 in data set [2] (Table ABC (PC)) lay within 50 to 100%. The “YFM (Biological Results, Insect species)” value in data set [3] (Table ABC (PC)) is listed as “B (More than 0-Less than 80)”.
As to `Cc1ccccc1NC(=S)NC(=O)NCCCCc1cccc(-c2ncn(-c3ccc(OC(F)(F)F)cc3)n2)c1` [PC170, 1-(o-tolylcarbamothioyl)-3-[4-[3-[1-[4-(trifluoromethoxy)phenyl]-1H-1,2,4-triazol-3-yl]phenyl]butyl]urea], the figures for the pest or weed control at 50 µg/cm2 in data set [1] (Table ABC (PC)) and in data set [2] (Table ABC (PC)) were 0 to 50% and 50 to 100%, respectively.
`CCc1ccccc1NC(=S)NC(=O)NCCCCc1cccc(-c2ncn(-c3ccc(OC(F)(F)F)cc3)n2)c1` [PC171, 1-[(2-ethylphenyl)carbamothioyl]-3-[4-[3-[1-[4-(trifluoromethoxy)phenyl]-1H-1,2,4-triazol-3-yl]phenyl]butyl]urea]: the pest or weed control at 50 µg/cm2 in data set [1] (Table ABC (PC)) fell in the range of 0 to 50%; in data set [2] (Table ABC (PC)) it was 50 to 100%.
Consider `CC(C)c1ccccc1NC(=S)NC(=O)NCCCCc1cccc(-c2ncn(-c3ccc(OC(F)(F)F)cc3)n2)c1` [PC172, 1-[(2-isopropylphenyl)carbamothioyl]-3-[4-[3-[1-[4-(trifluoromethoxy)phenyl]-1H-1,2,4-triazol-3-yl]phenyl]butyl]urea], for which the pest or weed control at 50 µg/cm2 in data set [1] (Table ABC (PC)) and in data set [2] (Table ABC (PC)) was 50 to 100% in each case.
On to `Cc1ccc(C(C)C)c(NC(=S)NC(=O)NCCCCc2cccc(-c3ncn(-c4ccc(OC(F)(F)F)cc4)n3)c2)c1` [PC176, 1-[(2-isopropyl-5-methyl-phenyl)carbamothioyl]-3-[4-[3-[1-[4-(trifluoromethoxy)phenyl]-1H-1,2,4-triazol-3-yl]phenyl]butyl]urea], for which the figures for the pest or weed control at 50 µg/cm2 in data set [1] (Table ABC (PC)) and in data set [2] (Table ABC (PC)) were 0 to 50% and 50 to 100%, respectively.
Taken in the same sequence, the figures for `CCc1cccc(C)c1NC(=S)NC(=O)NCCCCc1cccc(-c2ncn(-c3ccc(OC(F)(F)F)cc3)n2)c1` [PC179, 1-[(2-ethyl-6-methyl-phenyl)carbamothioyl]-3-[4-[3-[1-[4-(trifluoromethoxy)phenyl]-1H-1,2,4-triazol-3-yl]phenyl]butyl]urea] were 0 to 50% and 50 to 100%.
